Target: T1, Src (Homo sapiens, UniProt P12931)
T1 construct: purchased Carna Biosciences
Assay: Protein binding selectivity by change in fluorescence (fluorescence turn-on on binding)
Experimental: More particularly, to determine whether compound 1 selectively binds to a kinase enzyme, various proteins (including a kinase enzyme) were used to check a change in fluorescence. In this experiment, a buffer (100 mM HEPES buffer, pH 7.4) was used as the solvent, and a kinase commercially available from Carna Biosciences was used as the kinase enzyme. Here, each kinase enzyme was stored at −80° C. together with a solvent (50 mM Tris-HCl, 150 mM NaCl, 0.1% CHAPS, 1 mM DTT, and 10% Glycerol, pH 7.5) kindly provided by the manufacturer. […] A 96-well fluorescence assay plate (commercially available from SPL Life Science) was used as a plate used upon measurement of fluorescence, and a VCITOR 3 multilabel counter (commercially available from Perkin Elmer-Wellesley) was used as a measuring machine. A 355 nm-thick filter was used to produce excitation wavelengths of the measuring machine, and a 535 nm-thick filter was used to produce emission wavelengths of the measuring machine. Stirring was performed at 37° C. for 24 hours at a rotary speed of 170 rpm using an NB-205Q model (commercially available from N-BIOTEK). Compound 1 was dissolved in a DMSO solution (1 mM, 10 mM, 50 mM, 100 mM, and 200 mM) to be used, and DMSO in every tube was adjusted to be substantially the same content (less than 1%) under the finally used solvent conditions. Mg^2+ and ATP were used at a content of 1 mM.
In the graph shown in FIG. 2, the horizontal axis represents kinds of proteins, and the vertical axis represents fluorescence intensities of the proteins. Each experimental value was basically an average value of three experiments conducted through the same course for preparing for experiments, a concentration of compound 1 used was 100 μM, and an amount of each protein was 0.2 μg/mL. The kinds of proteins indicated on the horizontal axis are as follows. […]
More particularly, the solvent and experiment conditions used were substantially the same as in Example 3. In the graph shown in FIG. 7, A represents a fluorescence intensity when compound 1 (100 μM) is used alone, B represents a fluorescence intensity when Mg (1 mM) is added to compound 1, C represents a fluorescence intensity when ATP (1 mM) is added to compound 1, and D represents a fluorescence intensity when compound 1 is treated with Mg (1 mM) and ATP (1 mM) at the same time.
More particularly, a concentration of the kinase enzyme was set to 0.2 μg/mL, fluorescence intensity according to the concentration of compound 1 was measured in the presence of Mg (1 mM) and ATP (1 mM), and the solvent conditions and other conditions were substantially the same as in Example 3.

T1 sequence (P12931 whole entry): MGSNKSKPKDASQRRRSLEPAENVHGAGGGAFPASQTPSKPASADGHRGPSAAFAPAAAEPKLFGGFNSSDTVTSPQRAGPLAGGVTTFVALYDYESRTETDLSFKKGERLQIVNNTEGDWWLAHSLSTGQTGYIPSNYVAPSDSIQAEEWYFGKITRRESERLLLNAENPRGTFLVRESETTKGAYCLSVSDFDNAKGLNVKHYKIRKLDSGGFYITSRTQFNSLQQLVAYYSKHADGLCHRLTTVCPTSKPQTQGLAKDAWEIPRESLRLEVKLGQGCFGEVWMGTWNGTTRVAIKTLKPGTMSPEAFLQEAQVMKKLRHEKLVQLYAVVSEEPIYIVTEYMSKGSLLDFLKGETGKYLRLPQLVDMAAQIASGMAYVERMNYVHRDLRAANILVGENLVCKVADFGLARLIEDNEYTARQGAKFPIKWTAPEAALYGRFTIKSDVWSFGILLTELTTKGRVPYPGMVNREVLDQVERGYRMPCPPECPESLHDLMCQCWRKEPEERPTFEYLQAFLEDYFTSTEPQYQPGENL

fluorescence intensity (compound 1 100 μM, protein 0.2 μg/mL, with Mg and ATP (1 mM), 37° C. 24 hours): increase in fluorescence
increase in fluorescence intensity (compound 1 at approximately 50 μM, kinase 0.2 μg/mL, Mg 1 mM, ATP 1 mM): approximately 50%
SMILES: CN(C)c1ccc2cc(C=O)c(O)cc2c1 [compound 1, 6-(dimethylamino)-3-hydroxyl-2-naphthaldehyde]
fluorescence intensity, effect of cofactors (compound 1 100 μM, case D: Mg (1 mM) and ATP (1 mM) together): highest increase in fluorescence intensity
fluorescence signal intensity according to concentration of kinase enzyme (compound 1 100 μM, enzyme 0.2 μg and 1 μg): stronger fluorescence signal intensity at higher concentrations
